Earlier results as cited in patent US8410096B2, “Antitumor agent, kit and method of treating cancer” (Shizuoka Prefecture, priority 2008, dated 2013).

System: 5-FU decomposition
Settings: compared with uracil

5-FU decomposition inhibitory action relative to uracil: about 200 times
SMILES: Oc1cc(O)c(Cl)cn1 [gimeracil, 2,4-dihydroxy-5-chloropyridine]
